{
  "source": "patent US20090253634A1",
  "about": "“Methods and Compositions for the Treatment of Gastrointestinal Disorders” (MICROBIA, INC., priority 2005, published 2009)",
  "key": {"[1]": {"tested_on": "ligated loop in the small intestine", "experiment": "ligated intestinal loop model in wild-type and GC-C KO mice", "assay_type": "in vivo", "details": "5 μg injected into loop, 90 minutes", "description": "The length of each loop was also recorded."}, "[2]": {"tested_on": "intestinal transit after abdominal surgery", "experiment": "rat model of postoperative ileus", "assay_type": "in vivo, CD rats", "details": "oral 10 μg/kg, 20 minutes after charcoal meal", "description": "Female CD rats were used to test the effect of SEQ ID NO:3 on delayed transit induced by abdominal surgery and manual manipulation of the small intestine. Groups of at least nine rats underwent abdominal surgery under isoflurane anesthesia. Surgery consisted of laparotomy and 5 minutes of gentle manual intestinal massage. Following recovery from anesthesia, rats were dosed orally with either 10 μg/kg SEQ ID NO:3 or vehicle (20 mM Tris) in a volume of 300 μl. 1 hour after dosing, intestinal transit rate was measured. Animals were again dosed with 300 μl of the test article followed immediately by 500 μl of a charcoal meal (10% charcoal, 10% gum arabic in water). To calculate the distance of the small intestine traveled by the charcoal front, after 20 minutes, the total length of the intestine as well as the distance traveled from the stomach to the charcoal front were measured for each animal. Animals dosed with 10 μg/kg SEQ ID NO:3 experienced an increase in transit following abdominal surgery compared to animals dosed with vehicle alone (FIG. 16). Charcoal transit in SEQ ID NO:3 dosed animals was measured at 37.3+3.0% (mean±SEM) of the small intestine compared with vehicle at 24.7+1.4% (mean±SEM) of the small intestine."}, "gastrointestinal transit": {"tested_on": "gastrointestinal transit", "experiment": "murine gastrointestinal transit (GIT) assay, acute and chronic dosing", "assay_type": "in vivo, mice", "description": "In order to determine whether the peptides increase the rate of gastrointestinal transit, the peptides and controls were tested using a murine gastrointestinal transit (GIT) assay (Moon et al. Infection and Immunity 25:127, 1979). In this assay, charcoal, which can be readily visualized in the gastrointestinal tract is administered to mice after the administration of a test compound. The distance traveled by the charcoal is measured and expressed as a percentage of the total length of the […].\nMice were fasted with free access to water for 12 to 16 hours before the treatment with peptide or control buffer. The peptides were orally administered at 1 μg/kg-1 mg/kg of peptide in buffer ([…] pH 7.5) 7 minutes before being given an oral dose of 5% Activated Carbon (Aldrich 242276-250G). Control mice were administered buffer only before being given a dose of Activated Carbon. After 15 minutes, the mice were sacrificed and their intestines from the stomach to the cecum were dissected. The total length of the intestine as well as the distance traveled from the stomach to the charcoal front was measured for each animal and the results are expressed as the percent of the total length of the intestine traveled by the charcoal front. All results are reported as the average of 10 mice±standard deviation. A comparison of the distance traveled by the charcoal between the mice treated with peptide versus the mice treated with vehicle alone was performed using a Student's t test and a statistically significant difference was considered for P<0.05. P-values are calculated using a two-sided T-Test assuming unequal variances.\nThe identical experiment was performed to determine if SEQ ID NO:3 is effective in a chronic dosing treatment regimen. Briefly, 8 week old CD1 female mice are dosed orally once a day for 5 days with either SEQ ID NO:3 (0.06 mg/kg or 0.25 mg/kg in 20 mM Tris pH 7.5) or vehicle alone (20 mM Tris pH 7.5). On the 5th day, a GIT assay is performed identical to that above except 200 μl of a 10% charcoal solution is administered. […] The results are shown side by side with acute dosing (1 day)."}, "[3]": {"experiment": "stability in simulated gastric fluid (SGF)", "assay_type": "in vitro ADME", "details": "pH 1, 37° C., up to 3 h", "description": "(§1) All samples were analyzed by LC/MS\nThe reference control sample was diluted 10-fold (1000 μL volume) in distilled water for a final concentration of 10 μM and chilled on ice. At each time point, samples were diluted 10-fold (1000 μL volume) in distilled water for an expected concentration of 10 μM, and chilled on ice, until analysis."}, "pepsin": {"target": "T1, pepsin (Sus scrofa, UniProt P00791)", "T1 construct": "purchased Sigma-Aldrich P68871; host or cells: porcine gastric mucosa", "T1 sequence (P00791 60-385)": "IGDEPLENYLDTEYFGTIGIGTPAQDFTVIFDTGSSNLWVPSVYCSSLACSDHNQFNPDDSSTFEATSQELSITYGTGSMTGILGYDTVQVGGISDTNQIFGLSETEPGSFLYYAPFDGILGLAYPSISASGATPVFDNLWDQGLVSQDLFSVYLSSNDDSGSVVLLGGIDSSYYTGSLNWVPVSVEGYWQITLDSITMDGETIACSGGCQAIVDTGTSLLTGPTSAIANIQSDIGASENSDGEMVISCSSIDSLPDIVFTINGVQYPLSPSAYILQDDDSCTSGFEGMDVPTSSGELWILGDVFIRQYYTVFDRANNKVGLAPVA", "experiment": "in vitro proteolytic stability: pepsin", "assay_type": "in vitro ADME, porcine", "details": "pH 2.0, 37° C., up to 3 h", "description": "as §1"}, "[4]": {"tested_on": "abdominal response to colorectal distension", "experiment": "TNBS visceral hypersensitivity rat model (colorectal distension, EMG)", "assay_type": "in vivo, Wistar rats", "details": "0.3 μg/kg and 3 μg/kg; given one hour before CRD", "description": "Male Wistar rats (220-250 g) were premedicated with 0.5 mg/kg of acepromazine injected intraperitoneally (IP) and anesthetized by intramuscular administration of 100 mg/kg of ketamine. Pairs of nichrome wire electrodes (60 cm in length and 80 μm in diameter) were implanted in the striated muscle of the abdomen, 2 cm laterally from the white line. The free ends of electrodes were exteriorized on the back of the neck and protected by a plastic tube attached to the skin. Electromyographic (EMG) recordings were started 5 days after surgery. Electrical activity of abdominal striated muscle was recorded with an electroencephalograph machine (Mini VIII, Alvar, Paris, France) using a short time constant (0.03 sec.) to remove low-frequency signals (<3 Hz).\nTen days post surgical implantation, trinitrobenzenesulphonic acid ([…]) was administered to induce rectal inflammation. TNBS (80 mg kg^−1 in 0.3 ml 50% ethanol) was administered intrarectally through a silicone rubber catheter introduced at 3 cm from the anus under light diethyl-ether anesthesia, as described (Morteau et al. 1994 Dig Dis Sci 39:1239). […] Evaluation of rectal sensitivity, as measured by EMG, was performed before (1-2 days) and 3 days following rectal instillation of TNBS.\nThe number of spike bursts that corresponds to abdominal contractions was determined per 5 min periods. […]"}, "chymotrypsin": {"target": "T2, chymotrypsin (Bos taurus, UniProt P00766)", "T2 construct": "purchased Sigma-Aldrich C6423; host or cells: bovine pancreas", "experiment": "in vitro proteolytic stability: chymotrypsin", "assay_type": "in vitro ADME, bovine", "details": "37° C., up to 24 h", "description": "as §1\nSamples were returned to the 37° C. water bath."}},
  "note": "Bridge positions count the residues as written; N and C are the ends. Peptide text beside a SMILES is read from it.",
  "data": [
    {"smiles": "C[C@@H]1NC(=O)[C@@H]2CCCN2C(=O)[C@H](CC(N)=O)NC(=O)[C@@H]2CSSC[C@H](N)C(=O)N[C@H]3CSSC[C@H](NC1=O)C(=O)N[C@@H]([C@@H](C)O)C(=O)NCC(=O)N[C@H](C(=O)N[C@@H](Cc1ccc(O)cc1)C(=O)O)CSSC[C@H](NC(=O)[C@H](Cc1ccc(O)cc1)NC(=O)[C@H](CCC(=O)O)NC3=O)C(=O)N2", "note": "[SEQ ID NO:3] (H-CCEYCCNPACTGCY-OH; disulfide 1-6, 2-10, 5-13; N-terminus and C-terminus assumed)", "values": [
      {"measurement": "cGMP activity in ligated loop fluid", "setting": "[1]", "result": "no effect"},
      {"measurement": "secretion in ligated loop (weight to length ratio)", "setting": "[1]", "result": "no effect"},
      {"measurement": "Charcoal transit, of the small intestine (mean±SEM)", "setting": "[2]", "result": "37.3 ± 3.0", "unit": "%"},
      {"measurement": "intestinal transit rates versus Tris buffer or equivalent dose of Zelnorm", "setting": "gastrointestinal transit; acute, chemically synthesized peptides, FIG. 4b", "result": "increase intestinal transit rates more than either Tris buffer alone or an equivalent dose of Zelnorm®"},
      {"measurement": "gastrointestinal transit rate", "setting": "gastrointestinal transit; acute, oral, SEQ ID NO:4 and Zelnorm 0.1 mg/kg, FIG. 3a, 3b", "result": "increase gastrointestinal transit rate"},
      {"measurement": "effect in mouse gastrointestinal motility assay upon chronic dosing", "setting": "gastrointestinal transit; oral once a day for 5 days, SEQ ID NO:3 0.06 or 0.25 mg/kg, FIG. 4c", "result": "effective"},
      {"measurement": "Cleavage of SEQ ID NO: 3 by proteolytic substance", "setting": "[3]", "result": "not detectable"},
      {"measurement": "Cleavage of SEQ ID NO: 3 by proteolytic substance", "setting": "pepsin", "result": "not detectable"},
      {"measurement": "abdominal response to colorectal distension after TNBS", "setting": "[4]", "result": "Significant decreases in abdominal response"},
      {"measurement": "Cleavage of SEQ ID NO: 3 by proteolytic substance", "setting": "chymotrypsin", "result": "not detectable"}
    ]}
  ]
}
